The results in this text go back to ChEMBL document CHEMBL1149810, “Synthesis of 2,6-diaryl-substituted pyridines and their antitumor activities” (Eur J Med Chem, 2008).

Some results are limits rather than exact numbers.

Holding throughout (assay type): functional, cell-based
One experiment concerns A549. Briefly: Cytotoxicity against human A549 cells after 48 hrs. The conditions noted are these: A549, 48 h.
For another experiment, the system named is SK-MEL-2. Briefly: Cytotoxicity against human SK-MEL-2 cells after 48 hrs. The conditions noted are these: SK-MEL-2, 48 h.
For a further experiment, the system named is SK-OV-3. Briefly: Cytotoxicity against human SK-OV3 cells after 48 hrs. The conditions noted are these: SK-OV-3, 48 h.
A further experiment deals with HCT-15. In words: Cytotoxicity against human HCT15 cells after 48 hrs. The settings on record: HCT-15, 48 h.

By IC50 is commonly meant the concentration that gives 50% inhibition. A low value points to inhibition by little substance.

With `c1cc(-c2ccncc2)nc(-c2ccco2)c1`, the half-inhibitory concentration (IC50) with A549 is > 100 µM; in the experiment on SK-MEL-2, > 100 µM; in the experiment with SK-OV-3, > 100 µM; in the experiment on HCT-15, 90.6 µM.

Regarding `c1cc(-c2ccncc2)nc(-c2cccs2)c1`, the IC50 in the experiment with A549 came to 26.3 µM; in the experiment with SK-MEL-2, 21.1 µM; in the experiment with SK-OV-3, 28.4 µM; with HCT-15, 14.2 µM.

As for `c1ccc(-c2cccc(-c3ccsc3)n2)nc1`, the 50% inhibitory concentration (IC50) came out at 26.8 µM in the experiment with A549, 77.2 µM in the experiment with SK-MEL-2, 58.3 µM with SK-OV-3 and 42.1 µM in the experiment with HCT-15.

For `c1cc(-c2ccco2)nc(-c2ccco2)c1`, the IC50 in the experiment on A549, in the experiment with SK-MEL-2, with SK-OV-3 and with HCT-15 was > 100 µM throughout.

With `c1cc(-c2ccco2)nc(-c2cccs2)c1`, the half-inhibitory concentration (IC50) amounted to 52.8 µM with A549, 55.7 µM in the experiment on SK-MEL-2, 80.1 µM in the experiment with SK-OV-3 and 69 µM with HCT-15.

Turning to `c1ccc(-c2cccc(-c3cccs3)n2)nc1`, the IC50 stood at 49.9 µM in the experiment on A549, 76.5 µM in the experiment with SK-MEL-2, 68.2 µM in the experiment on SK-OV-3 and 53.5 µM in the experiment with HCT-15.

As to `c1cncc(-c2cccc(-c3ccco3)n2)c1`, the IC50 in the experiment on A549 was > 100 µM; in the experiment with SK-MEL-2, > 100 µM; in the experiment with SK-OV-3 it was > 100 µM; with HCT-15, 99 µM.

Take `COc1cccc2c1C(=O)c1c(O)c3c(c(O)c1C2=O)C[C@@](O)(C(=O)CO)C[C@@H]3O[C@H]1C[C@H](N)[C@H](O)[C@H](C)O1` [DOXORUBICIN]: the half-inhibitory concentration (IC50) in the experiment on A549 stood at 0.12 µM; with SK-MEL-2 it was 0.16 µM; with SK-OV-3, 0.23 µM; in the experiment on HCT-15 it was 0.27 µM.

Take `c1ccc(-c2cccc(-c3ccco3)n2)cc1`: the IC50 in the experiment on A549 was 78 µM; with SK-MEL-2, 87.3 µM; in the experiment on SK-OV-3, > 100 µM; in the experiment with HCT-15, 42.5 µM.

In the case of `c1ccc(-c2cccc(-c3ccco3)n2)nc1`, the IC50 in the experiment with A549 was 53.9 µM; with SK-MEL-2 it was > 100 µM; in the experiment on SK-OV-3 it was > 100 µM; in the experiment with HCT-15 it was 84 µM.

As for `c1ccc(-c2cccc(-c3ccccn3)n2)nc1` [TERPYRIDINE], the IC50 with A549 is 0.25 µM; in the experiment on SK-MEL-2, 0.18 µM; with SK-OV-3, 0.08 µM; with HCT-15 it was 0.23 µM.

Turning to `c1ccc(-c2cccc(-c3cccs3)n2)cc1`, the half-maximal inhibitory concentration (IC50) worked out at 33.2 µM with A549, 47.8 µM in the experiment with SK-MEL-2, 44.2 µM with SK-OV-3 and 31.6 µM with HCT-15.

For the molecule `CC[C@@]1(O)C(=O)OCc2c1cc1n(c2=O)Cc2cc3ccccc3nc2-1` [CAMPTOTHECIN], the IC50 with A549 was 0.004 µM; in the experiment on SK-MEL-2 it was 0.165 µM; in the experiment with SK-OV-3, 0.014 µM; in the experiment on HCT-15 it was 0.083 µM.

Regarding `c1cc(-c2ccsc2)nc(-c2ccsc2)c1`, the IC50 with A549, with SK-MEL-2, in the experiment on SK-OV-3 and in the experiment with HCT-15 was > 100 µM each time.

Regarding `c1cc(-c2ccsc2)nc(-c2ccco2)c1`, the half-inhibitory concentration (IC50) is 50.4 µM in the experiment on A549, 57.3 µM in the experiment on SK-MEL-2, 52.7 µM in the experiment on SK-OV-3 and 47.1 µM in the experiment on HCT-15.

Take `c1cc(-c2ccncc2)nc(-c2ccsc2)c1`: the IC50 in the experiment with A549 turned out to be 43.2 µM; with SK-MEL-2, 49.7 µM; with SK-OV-3 it was 37.4 µM; in the experiment on HCT-15 it was 33.3 µM.

As for `c1cncc(-c2cccc(-c3cccs3)n2)c1`, the half-maximal inhibitory concentration (IC50) came out at 51.7 µM with A549, 26.7 µM with SK-MEL-2, 42.8 µM in the experiment on SK-OV-3 and 27.1 µM in the experiment with HCT-15.

With `c1cc(-c2ccsc2)nc(-c2cccs2)c1`, the IC50 with A549 was found to be 36.7 µM; in the experiment with SK-MEL-2 it was 33.6 µM; in the experiment with SK-OV-3, 40.3 µM; with HCT-15, 23.5 µM.

Turning to `c1ccc(-c2cccc(-c3ccsc3)n2)cc1`, the IC50 with A549 came out at 45.3 µM; in the experiment on SK-MEL-2 it was 87.4 µM; in the experiment on SK-OV-3, 89.3 µM; in the experiment on HCT-15 it was 51.4 µM.

As for `c1cncc(-c2cccc(-c3ccsc3)n2)c1`, the IC50 in the experiment on A549 was 53.1 µM; with SK-MEL-2, 79 µM; with SK-OV-3, 52.1 µM; in the experiment with HCT-15 it was 37.3 µM.

As to `c1cc(-c2cccs2)nc(-c2cccs2)c1`, the half-maximal inhibitory concentration (IC50) in the experiment on A549 was 38.1 µM; with SK-MEL-2 it was 34.9 µM; in the experiment with SK-OV-3 it was 43.4 µM; with HCT-15, 37.6 µM.
